The test system of assay [1] is Trichophyton mentagrophytes KD-04 strain. The experiment in a line: Present evaluation method (drug removed by dialysis, viable fungus detected), guinea pig model of interdigital tinea pedis. In kind it is in vivo. To be noted: five days after the last treatment; for The number of fungus-negative feet/Total number of infected feet, Present evaluation method: right feet, drug removed by dialysis, detection limit 10 CFU/feet. The protocol: (§1) Millipore Filter (made by Millipore Corporation, HA, diameter 47 mm, 0.45 μm) was placed on Brain-Heart-infusion agar medium (available from Nissui Pharmaceutical Co., LTD.), and 10^6 cells of microcondium of Trichophyton mentagrophytes KD-04 strain were applied thereon. The cultivation was carried out at 30° C. under 17% of CO2 for 7 days. After the cultivation, just amount of physiological saline containing 0.05% of Tween 80 was dropped on the filter and arthroconidia were collected using a platinum loop. After a hyphal mass was removed by a filtration with a sterile gauze, the number of arthroconidia in the filtrate was calculated by hemocytometer to adjust in concentration of 1×10^8 arthroconidia/ml to obtain a fungal inocula.
(§2) A guinea pig model of interdigital type of tinea pedis was prepared according to the method of Arika et al (Antimicrobial Agents and Chemotherapy, 36: 2523–2525, 1992). Concretely, in two hind foots of male Hartley strain guinea pigs of 7 weeks age, the interdigital skin was lightly abraded with sandpaper. A paper disc (AAdisc available from Whatmen International Ltd cut in 8×4 mm) moisten with the above-mentioned solution of the inoculated organism was applied onto the region between the interdigital toes of the hind feet and fixed using Self-adhering-Foam Pad (Restone 1560M; available from 3M) and adhesive stretch bandage (ELASTPORE; available from Nichiban Co., Ltd). The paper disc and the bandage were removed seven days after of the infection.
(§3) A marketed 1% lanoconazole solution (commercial name: Astat (trade name) solution) and a solution in which KP-103 was solved in a concentration of 1% in polyethylene grycole #400: ethanol (75:25 v/v) mixture were used as test substance. Each solution in amount of 0.1 ml was applied to the plantar skin once a day from 10 days after the infection for 10 days.
A model was prepared according to Comparative Example 1. Lanoconazole being a test compound was used for a therapeutic experience as 1% solution with the same vehicle as KP-103. […]

Assay [2] deals with Trichophyton mentagrophytes SM-110 strain. In words: Evaluation of drug effect on tinea pedis, guinea pig model, present evaluation method. To be noted: two days after last treatment; 30 consecutive days; topical 1% solution 0.1 ml or oral 40 mg/kg; detection limit 20 CFU/feet. It counts as in vivo. Here is the method:
A fungal solution was prepared in the same manner as in the pretreatment of Comparative Example 1 except for changing Trichophyton mentagrophytes KD-04 strain to Trichophyton mentagrophytes SM-110 strain. A guinea pig model of tinea unguium and tinea pedis was prepared in the same manner as in the above-mentioned preparation of the guinea pig model in interdigital tinea pedis except for changing male Hartley strain guinea pigs of 7 weeks age to male Hartley strain guinea pigs of 5 weeks age and except that the paper disc and the bandage was removed 21 days after the infection changing from seven days after the infection. The invasion of dermatophytes in plantar skin and nail plate was observed 60 days after the infection. As test compounds, solutions were prepared by dissolving raw powders of KP-103, amorolfine and terbinafine in a concentration of 1% thereof to mixture solution of polyethylene grycole #400: ethanol (75:25 v/v), respectively. Capsule of terbinafine was prepared by crushing the marketed tablet, suspending in the concentration of 100 mg/ml into Miglyol 812 (available from Mitsuba trade Co., Ltd)with glass homogenizer uniformity, and injecting the resulting suspension into each capsule in the concentration of 40 mg/kg depending on body weight measured on administration day. A solution of KP-103, amorolfine or terbinafine in the amount of 0.1 ml was applied a plantar skin and nail of one foot once a day for 30 consecutive days. In case of terbinafine capsule, one capsule (40 mg/kg) was administered orally. Skin pieces of hind feet were excised from each animal described in Example 4. A removal of the drug and a determination of the remaining drug were carried out in the same as in Example 2 except that dialysis for removing the drug carried out for 3 days and that dialysis water was changed six times in total. The sufficient removal of the remaining drug was confirmed. Then the drug effect was evaluated in the same manner as in Example 4 (detection limit: 20 CFU/feet). Those results were shown in FIG. 4 and Table 4 thereof was made. In FIG. 4, the number of CFU in the skin in each treated group was plotted and the mean number of CFU was shown by horizontal line and numerical value.

Assay [3] relates to Trichophyton mentagrophytes KD-04 strain. In words: Conventional method for evaluating drug effect, guinea pig model of interdigital type of tinea pedis. It counts as in vivo. To be noted: for The number of fungus-negative feet/Total number of infected feet: 1% solution 0.1 ml topical once a day for 10 days, lanoconazole as marketed Astat solution; for The number of fungus-negative feet/Total number of infected feet, Conventional Method: five days after the last treatment, left feet, 1% solutions in PEG #400:ethanol vehicle. Here is the method:
as §1, §2, §3
The conventional method was described as follows. For the infected control group without an application of the drug, the KP-103-treated group and the lanoconazole-treated group, 10 guinea pigs (hereinafter referred to “animal”) were employed, respectively. Animals of each group were sacrificed two days after and 30 days after the last treatment. Their two hind feet were excised and wiped with the cotton sweb containing alcohol sufficiently. A skin of whole sole was excised and cut into 15 skin pieces in total including 12 skin pieces from plantar parts and 3 skin pieces from an interdigital part. Each skin pieces were placed on 20 ml of Sabouraud dextrose agar medium (available from Difco laboratories) containing 50 μg of chloramphenicol (available from Wako Pure Chemical Industries, Ltd.), 100 μg of gentamicin (available from Schering-Plough Corporation), 50 μg of 5-fluorocytosine (available from Wako Pure Chemical Industries, Ltd.) and 1 mg of cycloheximide (available from nacalai tesque, Inc.) per ml. An antibiotic substance added to the medium was set to a condition which enable bacteria not to grow and which enable fungi to grow without problem. […] In the evaluation of the effect 30 days after last treatment, two days after the last treatment the treated feet were wiped with a cotton swab containing alcohol and fixed with the bandage in order to prevent a reinfection. The bandage was changed once a week.
A model was prepared according to Comparative Example 1. Lanoconazole being a test compound was used for a therapeutic experience as 1% solution with the same vehicle as KP-103. For the infected control group without an application of a drug, the KP-103-treated group and the lanoconazole-treated group, 20 animals were employed, respectively. The two hind feet were excised from each animal five days after the last treatment in the same manner as in Comparative Example 1. A total of 20 light feet were used for an evaluation by the conventional method, and a total of 20 right feet were used in the present evaluation method. […]

Assay [4] has as its system Trichophyton mentagrophytes SM-110 strain. In words: Evaluation of drug effect on tinea unguium, guinea pig model, present evaluation method. It counts as in vivo. To be noted: two days after last treatment, 30 consecutive days, topical 1% solution 0.1 ml or oral 40 mg/kg; for The number of feet with fungus-negative nail/Total number of infected feet: detection limit 10 CFU/feet. The protocol:
A fungal solution was prepared in the same manner as in the pretreatment of Comparative Example 1 except for changing Trichophyton mentagrophytes KD-04 strain to Trichophyton mentagrophytes SM-110 strain.
A guinea pig model of tinea unguium and tinea pedis was prepared in the same manner as in the above-mentioned preparation of the guinea pig model in interdigital tinea pedis except for changing male Hartley strain guinea pigs of 7 weeks age to male Hartley strain guinea pigs of 5 weeks age and except that the paper disc and the bandage was removed 21 days after the infection changing from seven days after the infection. The invasion of dermatophytes in plantar skin and nail plate was observed 60 days after the infection.
As test compounds, solutions were prepared by dissolving raw powders of KP-103, amorolfine and terbinafine in a concentration of 1% thereof to mixture solution of polyethylene grycole #400: ethanol (75:25 v/v), respectively. Capsule of terbinafine was prepared by crushing the marketed tablet, suspending in the concentration of 100 mg/ml into Miglyol 812 (available from Mitsuba trade Co., Ltd)with glass homogenizer uniformity, and injecting the resulting suspension into each capsule in the concentration of 40 mg/kg depending on body weight measured on administration day. A solution of KP-103, amorolfine or terbinafine in the amount of 0.1 ml was applied a plantar skin and nail of one foot once a day for 30 consecutive days. In case of terbinafine capsule, one capsule (40 mg/kg) was administered orally.
Animals were sacrificed two days after the last treatment. One hind foot was excised and wiped sufficiently with the cotton sweb containing alcohol. Nails (three in total) of one hind foot was excised and miced by a scissors. It was transferred into glass homogenizer and was homogenized adding 4 ml double-concentration phosphate buffered saline (Phosphate Buffered Salts, available from Takara Shuzo Co., Ltd.) containing 4% of trypsin derived from pig pancreas (available from BIOZYME Laboratories Limited). The reaction was carried out with shaking at 37° C. for one hour. After a centrifugation, the obtaining precipitate was washed three times by centrifuging with phosphate buffered saline in order to remove trypsin. The precipitate was suspended with 4 ml of distilled water and put into dialysis membrane (fractional molecular weight: 12,000–14,000, made of cellulose, available from VISKASE SALES Corporation). Dialysis was carried out into 3 L of distilled water at 4° C. for 14 days. Dialysis water was replaced twice a day 28 times in total. After a centrifugation, 1 ml of phosphate buffered saline was added to the precipitate obtained by removing the supernatant to prepare a suspension. This suspension was defined as stock solution and was diluted by tenfold. To Sabouraud dextrose agar medium (20 ml) containing the antibiotic substance described in Comparative Example 1 were added 100 μl of the stock solution or the dilution. […] The number of fungus-negative feet in the nail was counted. When the colony was appeared on the medium, the number of colonies (CFU) was counted to calculate the number of colonies in the nail of one foot by the dilution rate. After Kruskal Wallis Test was carried out for the number of fungi in the nail, the multiple comparison was carried out based on Tukey method to analysis the significant difference between groups. Those results were shown in FIG. 3 and Table 3 thereof was made. In FIG. 3, the number of CFU in nails in each treated group was plotted and the mean number of CFU was shown by horizontal line and numerical value.
Using the above-mentioned suspension, sufficient removal of the remaining drug was determined by the present evaluation method in the same manner as in Example 2.

Another assay has as its system fungus. The conditions noted are these: 20 feet, cited from earlier work.
In another assay the test system is Trichophyton. The experiment in a line: In vitro antifungal activity against dermatophytes. It counts as cell-based.
Setting [5] is: 30 days after the last treatment.
Where [6] appears, read: two days after the last treatment.

Marks after values point to notes of the source that are not given here.

Take `C=C1CCN([C@H](C)[C@](O)(Cn2cncn2)c2ccc(F)cc2F)CC1` [KP-103, (2R,3R)-2-(2,4-difluorophenyl)-3-(4-methylenepiperidine-1-yl)-1-(1H-1,2,4-triazole-1-yl)butane-2-ol]: in assay [1], the “rate of a fungus-negative foot evaluated by the present evaluation method” value is on record as 85% and the “The number of fungus-negative feet/Total number of infected feet, Present evaluation method” value was 17/20. Moreover, in assay [2], the “Mean number of fungal cells in the skin (Log CFU ± SD)” value was <1.3** Log CFU and the “The number of feet with fungus-negative skin/Total number of infected feet” value is recorded as 10/10**. For the same molecule, the “The number of fungus-negative feet/Total number of infected feet” value in assay [3] (setting [5]) is given as 16/20. The “The number of fungus-negative feet/Total number of infected feet, Conventional Method” value in assay [3] is 19/20. In assay [3] (setting [6]), the “The number of fungus-negative feet/Total number of infected feet” value was 20/20. Moreover, in assay [4], the “Mean number of fungal cells in the nail (Log CFU ± SD)” value is on record as 2.20 ± 0.56 Log CFU and the “The number of feet with fungus-negative nail/Total number of infected feet” value was 0/10.

With `CCC(C)(C)c1ccc(CC(C)CN2C[C@@H](C)O[C@@H](C)C2)cc1` (stereo partly shown) [Amorolfine solution, amorolfine], in assay [2], the “Mean number of fungal cells in the skin (Log CFU ± SD)” value is recorded as 1.74 ± 0.45 Log CFU and the “The number of feet with fungus-negative skin/Total number of infected feet” value was 4/10. In addition, in assay [4], the “Mean number of fungal cells in the nail (Log CFU ± SD)” value is listed as 3.26 ± 0.54 Log CFU and the “The number of feet with fungus-negative nail/Total number of infected feet” value is 0/10.

`CN(C/C=C/C#CC(C)(C)C)Cc1cccc2ccccc12` [Terbinafine solution, terbinafine]: in assay [2], the “Mean number of fungal cells in the skin (Log CFU ± SD)” value is <1.3** Log CFU and the “The number of feet with fungus-negative skin/Total number of infected feet” value is on record as 10/10**. Further, in assay [4], the “Mean number of fungal cells in the nail (Log CFU ± SD)” value is reported as 3.21 ± 0.47 Log CFU and the “The number of feet with fungus-negative nail/Total number of infected feet” value was 0/10.

On to `N#C/C(=C1/SCC(c2ccccc2Cl)S1)n1ccnc1` (stereo not shown) [Lanoconazole, lanoconazole], for which the “The number of fungus-negative feet/Total number of infected feet, Present evaluation method” value in assay [1] was 3/20. Further, the fungus-negative feet entry with fungus (2 days after the last treatment) is on record as “all feet out of 20 feet”. Besides, in the assay with fungus (setting [5]), the feet with relapse is reported as 11 out of 20. In the assay on Trichophyton, the “growth inhibitory concentration against Trichophyton” value was 15.6 ng/mL and the “in vitro activity against Trichophyton relative to KP-103” value is recorded as “eight-fold more active than KP-103”. For the same molecule, the “The number of fungus-negative feet/Total number of infected feet” value in assay [3] (setting [5]) is given as 9/20. In addition, the “The number of fungus-negative feet/Total number of infected feet, Conventional Method” value in assay [3] is given as 20/20. Further, the “The number of fungus-negative feet/Total number of infected feet” value in assay [3] (setting [6]) was 20/20.

The values above are taken from US7214506B2, “Method for treating onychomycosis” (Kaken Pharmaceutical Co., Ltd., priority 1999, dated 2007).
